Data taken from ChEMBL document CHEMBL1201862, “PubChem BioAssay data set” (2004).
Where “and” joins values, the source holds several entries; their conditions need not be identical. Identical values can stand only once.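 Dose response: 5 concentrations. Exposure: 48 h. Format: 96-well plates. Endpoint: linear interpolation; highest concentration if not reached. GI50 = concentration required for 50% inhibition of growth.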 Calls of active or inactive are those of the source. No stated cut-off is given here; in the data, active = GI50 up to about 1.1 µM and inactive = higher.

Legend:
Assay in all cases: growth of human tumour cells (NCI), 48 h
A549 = system: A549
ACHN = system: ACHN
CCRF-CEM = system: CCRF-CEM
COLO 205 = system: COLO 205
DLD-1 = system: DLD-1
HCC 2998 = system: HCC 2998
HCT-116 = system: HCT-116
HL-60 = system: HL-60
HOP-18 = system: HOP-18
HOP-62 = system: HOP-62
HOP-92 = system: HOP-92
HT-29 = system: HT-29
IGROV-1 = system: IGROV-1
K562 = system: K562
KM12 = system: KM12
LXFL 529 = system: LXFL 529
M19-MEL = system: M19-MEL
MOLT-4 = system: MOLT-4
NCI-H226 = system: NCI-H226
NCI-H23 = system: NCI-H23
NCI-H460 = system: NCI-H460
NCI-H522 = system: NCI-H522
OVCAR-3 = system: OVCAR-3
OVCAR-8 = system: OVCAR-8
RPMI-8226 = system: RPMI-8226
SF-268 = system: SF-268
SF-295 = system: SF-295
SF-539 = system: SF-539
SK-MEL-28 = system: SK-MEL-28
SK-MEL-5 = system: SK-MEL-5
SK-OV-3 = system: SK-OV-3
SNB-19 = system: SNB-19
SNB-75 = system: SNB-75
SR = system: SR
SW-620 = system: SW-620
TK-10 = system: TK-10
U-251 = system: U-251
UACC-257 = system: UACC-257
UACC-62 = system: UACC-62
UO-31 = system: UO-31
786-0 = system: 786-0
A498 = system: A498
CAKI-1 = system: CAKI-1
DMS-114 = system: DMS-114
DMS-273 = system: DMS-273
EKVX = system: EKVX
HCT-15 = system: HCT-15
KM-20L2 = system: KM-20L2
LOX IMVI = system: LOX IMVI
M14 = system: M14
Malme-3M = system: Malme-3M
OVCAR-4 = system: OVCAR-4
OVCAR-5 = system: OVCAR-5
SK-MEL-2 = system: SK-MEL-2
SN12C = system: SN12C
SNB-78 = system: SNB-78
XF498 = system: XF498
BT-549 = system: BT-549

Measured: GI50

Nc1c(C(=O)N/N=C/c2ccccc2)sc(=S)n1-c1ccccc1
inactive: A549 > 100 µM | ACHN > 100 µM | CCRF-CEM > 100 µM | COLO 205 > 100 µM | DLD-1 > 100 µM | HCC 2998 > 100 µM | HCT-116 > 100 µM | HL-60 > 100 µM | HOP-18 > 100 µM | HOP-62 > 100 µM | HOP-92 > 100 µM | HT-29 > 100 µM | IGROV-1 > 100 µM | K562 3.38 µM | KM12 > 100 µM | LXFL 529 > 100 µM | M19-MEL > 100 µM | MOLT-4 > 100 µM | NCI-H226 > 100 µM | NCI-H23 > 100 µM | NCI-H460 > 100 µM | NCI-H522 > 100 µM | OVCAR-3 > 100 µM | OVCAR-8 > 100 µM | RPMI-8226 > 100 µM | SF-268 > 100 µM | SF-295 > 100 µM | SF-539 70 µM | SK-MEL-28 > 100 µM | SK-MEL-5 > 100 µM | SK-OV-3 > 100 µM | SNB-19 > 100 µM | SNB-75 8.71 µM | SR > 100 µM | SW-620 > 100 µM | TK-10 > 100 µM | U-251 > 100 µM | UACC-257 > 100 µM | UACC-62 > 100 µM | UO-31 > 100 µM

CCN(CC)CC1CCCCN1CC(=O)N1c2cc(Cl)ccc2NC(=O)CC1C (centres undefined)
> 10 µM: HCT-15
active: SK-OV-3 0.0849 µM
inactive: 786-0 > 100 µM | A498 > 100 µM | A549 > 100 µM | ACHN > 100 µM | CAKI-1 > 100 µM | CCRF-CEM > 100 µM | COLO 205 > 100 µM | DLD-1 > 100 µM | DMS-114 > 100 µM | DMS-273 > 100 µM | EKVX > 100 µM | HCC 2998 > 100 µM | HCT-116 > 100 µM | HL-60 > 100 µM | HOP-62 > 100 µM | HOP-92 > 100 µM | K562 > 100 µM | KM-20L2 > 100 µM | KM12 > 100 µM | LOX IMVI > 100 µM | LXFL 529 > 100 µM | M14 > 100 µM | M19-MEL > 100 µM | MOLT-4 > 100 µM | Malme-3M > 100 µM | NCI-H226 > 100 µM | NCI-H23 > 100 µM | NCI-H460 > 100 µM | NCI-H522 > 100 µM | OVCAR-3 > 100 µM | OVCAR-4 > 100 µM | OVCAR-5 > 100 µM | OVCAR-8 > 100 µM | RPMI-8226 > 100 µM | SF-268 > 100 µM | SF-539 > 100 µM | SK-MEL-28 > 100 µM | SK-MEL-2 > 100 µM | SK-MEL-5 > 100 µM | SN12C > 100 µM | SNB-19 > 100 µM | SNB-75 > 100 µM | SNB-78 > 100 µM | SR > 100 µM | SW-620 > 100 µM | TK-10 > 100 µM | U-251 > 100 µM | UACC-257 > 100 µM | UACC-62 55.3 µM | UO-31 > 100 µM | XF498 > 100 µM

Oc1cccc2cccnc12 [OXYQUINOLINE]
active: HL-60 251 nM and 457 nM | LXFL 529 0.605 µM | RPMI-8226 0.578 µM | SR 0.453 µM
inactive: BT-549 > 80.2 µM | DLD-1 1.47 µM | DMS-273 2.53 µM | HOP-18 14.8 µM | IGROV-1 3.14 µM and 4.5 µM | KM-20L2 1.38 µM | SK-MEL-5 8.69 µM and 4.93 µM
